Patent US6750348B1, “Chemokine receptor binding heterocyclic compounds” (AnorMED, Inc., priority 1999, dated 2004)

Test system: HIV-1 NL4.3 or IIIB
Assay: Inhibition of HIV-1 (NL4.3 or IIIB) replication in MT-4 cells (MTT)
Format: cell-based
Settings: Human immunodeficiency virus 1, IIIB, MT4, read-out: EC50, inhibition of HIV-1 NL4.3 or IIIB replication
Method: Compounds were tested for their ability to inhibit HIV-1 replication in MT-4 cells or PBMC's (peripheral blood mononucleocytes) using published procedures (for example, see: Labrosse et al. J. Virol. 1998, 6381-6388; Simmons et al. J. Virol. 1998, 8453-8457; Donzella et al. Nature Medicine 1998, 72-77; Schols et al. J. Exp. Med. 1997, 1383-1388; De Clercq et al. Antiviral Res. 1997, 147-156; and Bridger et al. U.S. patent application Ser. No. 09/111,895). In addition to the above references, experimental methods for performing anti-viral assays can also be found in: Bridger et al. J. Med. Chem. 1995, 38, 366-378; Bridger et al. J. Med. Chem. 1996, 39, 109-119; Bridger et al. U.S. Pat. No. 5,698,546; Bridger et al. U.S. Pat. No. 5,583,131; Bridger et al. U.S. Pat. No. 5,817,807; De Clercq et al. Antimicrob. Agents and Chemother. 1994, 38, 668-674.
1. The HIV-1 strains NL4.3 and IIIB are T-tropic strains that exclusively use CXCR4 as the co-receptor for entry into cells. MT-4 Cells express CXCR4 but not CCR5.
Inhibition of HIV-1 NL4.3 (or IIIB) replication assays were performed as previously described (Bridger et al. J. Med. Chem. 1999, 42, 3971-3981; De Clercq et al. Proc. Natl. Acad. Sci, 1992, 89, 5286-5290; De Clercq et al. Antimicrob. Agents Chemother. 1994, 38, 668-674; Bridger et al. J. Med. Chem. 1995, 38, 366-378). Anti-HIV activity and cytotoxicity measurements were carried out in parallel. They were based on the viability of MT-4 cells that had been infected with HIV in the presence of various concentrations of the test compounds. After the MT-4 cells were allowed to proliferate for 5 days, the number of viable cells was quantified by a tetrazolium-based calorimetric 3-(4,5-dimethylthiazol-2-yl)-2,5-diphenyltetrazolium bromide (MTT) procedure in 96-well microtrays. In all of these assays, viral input (viral multiplicity of infection, MOI) was 0.01, or 100 times the 50% cell culture infective dose (CCID50). The EC50 was defined as the concentration required to protect 50% of the virus-infected cells against viral cytopathicity.

**Q.** For `c1ccc(CNCc2ccc(CNC3CCCCc4cccnc43)cc2)nc1` (stereo not shown) [Example 1, N-(2-pyridinylmethyl)-N′-(6,7,8,9-tetrahydro-5H-cyclohepta[b]pyridin-9-yl)-1,4-benzenedimethanamine], which EC50 is on record?
**A.** The EC50 was under 20 µg/mL.

**Q.** `c1ccc(CNCc2ccc(CNC3CCCc4cccnc43)cc2)nc1` (stereo not shown) [Example 2, N-(2-pyridinylmethyl)-N′-(5,6,7,8-tetrahydro-8-quinolinyl)-1,4-benzenedimethanamine] was tested. Which EC50 did it give?
**A.** The EC50 was under 20 µg/mL.

**Q.** With `c1ccc(CNCc2ccc(CNC3CCc4cccnc43)cc2)nc1` (stereo not shown) [Example 3, N-(2-pyridinylmethyl)-N′-(6,7-dihydro-5H-cyclopenta[b]pyridin-7-yl)-1,4-benzenedimethanamine] as the molecule, how does the EC50 read?
**A.** Its EC50 is under 20 µg/mL.

**Q.** Which EC50 does the source give for `c1ccc(CNCc2ccc(CNC3CCCc4ccccc43)cc2)nc1` (stereo not shown) [Example 4, N-(2-pyridinylmethyl)-N′-(1,2,3,4-tetrahydro-1-naphthalenyl)-1,4-benzenedimethanamine] here?
**A.** Its EC50 is under 20 µg/mL.

**Q.** With `O=C(NCCN(Cc1ccc(CNCc2ccccn2)cc1)C1CCCc2cccnc21)c1ccc2ccccc2c1` (stereo not shown) [Example 19, N-(2-pyridinylmethyl)-N′-(2-(2-naphthoyl)aminoethyl)-N′-(5,6,7,8-tetrahydro-8-quinolinyl)-1,4-benzenedimethanamine] as the molecule, how does the EC50 read?
**A.** Its EC50 is under 20 µg/mL.

**Q.** With `c1ccc(CNCc2ccc(CN(Cc3nc4ccccc4[nH]3)C3CCCc4cccnc43)cc2)nc1` (stereo not shown) [Example 61, N-(2-pyridinylmethyl)-N′-(1H-benzimidazol-2-ylmethyl)-N′-(5,6,7,8-tetrahydro-8-quinolinyl)-1,4-benzenedimethanamine] as the molecule, how does the EC50 read?
**A.** The EC50 was under 20 µg/mL.

**Q.** Which EC50 does the source give for `c1ccc(CCN(Cc2ccc(CNCc3ccccn3)cc2)C2CCCc3cccnc32)cc1` (stereo not shown) [Example 69, N-(2-pyridinylmethyl)-N′-(2-phenylethyl)-N′-(5,6,7,8-tetrahydro-8-quinolinyl)-1,4-benzenedimethanamine] here?
**A.** Its EC50 is under 20 µg/mL.

**Q.** With `c1ccc(CCCN(Cc2ccc(CNCc3ccccn3)cc2)C2CCCc3cccnc32)cc1` (stereo not shown) [Example 70, N-(2-pyridinylmethyl)-N′-(3-phenylpropyl)-N′-(5,6,7,8-tetrahydro-8-quinolinyl)-1,4-benzenedimethanamine] as the molecule, how does the EC50 read?
**A.** The EC50 was under 20 µg/mL.

Same assay, conditions: Human immunodeficiency virus 1, IIIB, MT4, read-out: EC50, inhibition of HIV-1 NLA.3 or IIIB replication

**Q.** How did the EC50 turn out when `COc1cccc(CN(Cc2ccc(CNCc3ccccn3)cc2)C2CCCc3cccnc32)c1OC` (stereo not shown) [Example 95, N-[(2,3-dimethoxyphenyl)methyl]-N′-(2-pyridinylmethyl)-N-(5,6,7,8-tetrahydro-8-quinolinyl)-1,4-benzenedimethanamine] was run?
**A.** The EC50 was under 20 µM.

**Q.** Which EC50 does the source give for `N#Cc1ccc(CN(Cc2ccc(CNCc3ccccn3)cc2)C2CCCc3cccnc32)cc1` (stereo not shown) [Example 101, N-[(4-cyanophenyl)methyl]-N′-(2-pyridinylmethyl)-N-(5,6,7,8-tetrahydro-8-quinolinyl)-1,4-benzenedimethanamine] here?
**A.** The EC50 was under 20 µM.

**Q.** For `CC(=O)Nc1ccc(CN(Cc2ccc(CNCc3ccccn3)cc2)C2CCCc3cccnc32)cc1` (stereo not shown) [Example 102, N-[(4-acetamidophenyl)methyl]-N′-(2-pyridinylmethyl)-N-(5,6,7,8-tetrahydro-8-quinolinyl)-1,4-benzenedimethanamine], which EC50 is on record?
**A.** Its EC50 is under 20 µM.

**Q.** `c1ccc(Oc2ccc(CN(Cc3ccc(CNCc4ccccn4)cc3)C3CCCCc4cccnc43)cc2)cc1` (stereo not shown) [Example 103, N-[(4-phenoxyphenyl)methyl]-N′-(2-pyridinylmethyl)-N-(6,7,8,9-tetrahydro-5H-cyclohepta[b]pyridin-9-yl)-1,4-benzenedimethanamine] was tested. Which EC50 did it give?
**A.** Its EC50 is under 20 µM.

**Q.** With `c1ccc(COc2ccc(CN(Cc3ccc(CNCc4ccccn4)cc3)C3CCCCc4cccnc43)cc2)cc1` (stereo not shown) [Example 105, N-[(4-benzyloxyphenyl)methyl]-N′-(2-pyridinylmethyl)-N-(6,7,8,9-tetrahydro-5H-cyclohepta[b]pyridin-9-yl)-1,4-benzenedimethanamine] as the molecule, how does the EC50 read?
**A.** Its EC50 is under 20 µM.

**Q.** How did the EC50 turn out when `c1ccc(CNCc2ccc(CN(Cc3ccc4c(c3)OCO4)C3CCCc4cccnc43)cc2)nc1` (stereo not shown) [Example 112, N-[(3,4-methylenedioxyphenyl)methyl]-N′-(2-pyridinylmethyl)-N-(5,6,7,8-tetrahydro-8-quinolinyl)-1,4-benzenedimethanamine] was run?
**A.** Its EC50 is under 20 µM.

**Q.** How did the EC50 turn out when `c1ccc(CNCc2ccc(CN(Cc3cccnc3)C3CCCCc4cccnc43)cc2)nc1` (stereo not shown) [Example 113, N-(3-pyridinylmethyl)-N′-(2-pyridinylmethyl)-N-(6,7,8,9-tetrahydro-5H-cyclohepta[b]pyridin-9-yl)-1,4-benzenedimethanamine] was run?
**A.** The EC50 was under 20 µM.

**Q.** How did the EC50 turn out when `CCCOc1ccc(CN(Cc2ccc(CNCc3ccccn3)cc2)C2CCCCc3cccnc32)cc1` (stereo not shown) [Example 116, N-[(4-propoxyphenyl)methyl]-N′-(2-pyridinylmethyl)-N-(6,7,8,9-tetrahydro-5H-cyclohepta[b]pyridin-9-yl)-1,4-benzenedimethanamine] was run?
**A.** The EC50 was under 20 µM.

**Q.** Which EC50 does the source give for `COc1cc(CN(Cc2ccc(CNCc3ccccn3)cc2)C2CCCCc3cccnc32)cc2c1OCO2` (stereo not shown) [Example 119, N-[(3-methoxy-4,5-methylenedioxyphenyl)methyl]-N′-(2-pyridinylmethyl)-N-(6,7,8,9-tetrahydro-5H-cyclohepta[b]pyridin-9-yl)-1,4-benzenedimethanamine] here?
**A.** Its EC50 is under 20 µM.

**Q.** With `N#Cc1cccc(CN(Cc2ccc(CNCc3ccccn3)cc2)C2CCCc3cccnc32)c1` (stereo not shown) [Example 121, N-[(3-cyanophenyl)methyl]-N′-(2-pyridinylmethyl)-N-(5,6,7,8-tetrahydro-8-quinolinyl)-1,4-benzenedimethanamine] as the molecule, how does the EC50 read?
**A.** The EC50 was under 20 µM.

**Q.** With `CCc1ccc(CN(Cc2ccc(CNCc3ccccn3)cc2)C2CCCc3cccnc32)s1` (stereo not shown) [Example 123, N-(5-ethylthiophene-2-ylmethyl)-N′-(2-pyridinylmethyl)-N-(5,6,7,8-tetrahydro-8-quinolinyl)-1,4-benzenedimethanamine] as the molecule, how does the EC50 read?
**A.** The EC50 was under 20 µM.

**Q.** How did the EC50 turn out when `Fc1cccc(F)c1CN(Cc1ccc(CNCc2ccccn2)cc1)C1CCCCc2cccnc21` (stereo not shown) [Example 124, N-[(2,6-difluorophenyl)methyl]-N′-(2-pyridinylmethyl)-N-(6,7,8,9-tetrahydro-5H-cyclohepta[b]pyridin-9-yl)-1,4-benzenedimethanamine] was run?
**A.** Its EC50 is under 20 µM.

**Q.** With `Fc1cccc(F)c1CN(Cc1ccc(CNCc2ccccn2)cc1)C1CCCc2cccnc21` (stereo not shown) [Example 125, N-[(2,6-difluorophenyl)methyl]-N′-(2-pyridinylmethyl)-N-(5,6,7,8-tetrahydro-8-quinolinyl)-1,4-benzenedimethanamine] as the molecule, how does the EC50 read?
**A.** Its EC50 is under 20 µM.

**Q.** For `FC(F)Oc1ccccc1CN(Cc1ccc(CNCc2ccccn2)cc1)C1CCCCc2cccnc21` (stereo not shown) [Example 126, N-[(2-difluoromethoxyphenyl)methyl]-N′-(2-pyridinylmethyl)-N-(6,7,8,9-tetrahydro-5H-cyclohepta[b]pyridin-9-yl)-1,4-benzenedimethanamine], which EC50 is on record?
**A.** Its EC50 is under 20 µM.

**Q.** With `Fc1ccc(CN(Cc2ccc(CNCc3ccccn3)cc2)C2CCCc3cccnc32)c(F)c1` (stereo not shown) [Example 137, N-[(2,4-difluorophenyl)methyl]-N′-(2-pyridinylmethyl)-N-(5,6,7,8-tetrahydro-8-quinolinyl)-1,4-benzenedimethanamine] as the molecule, how does the EC50 read?
**A.** The EC50 was under 20 µM.

**Q.** `Cn1cccc1CN(Cc1ccc(CNCc2ccccn2)cc1)C1CCCc2cccnc21` (stereo not shown) [Example 138, N-(1-methylpyrrol-2-ylmethyl)-N′-(2-pyridinylmethyl)-N-(5,6,7,8-tetrahydro-8-quinolinyl)-1,4-benzenedimethanamine] was tested. Which EC50 did it give?
**A.** The EC50 was under 20 µM.

**Q.** `Oc1ccccc1CN(Cc1ccc(CNCc2ccccn2)cc1)C1CCCc2cccnc21` (stereo not shown) [Example 139, N-[(2-hydroxyphenyl)methyl]-N′-(2-pyridinylmethyl)-N-(5,6,7,8-tetrahydro-8-quinolinyl)-1,4-benzenedimethanamine] was tested. Which EC50 did it give?
**A.** Its EC50 is under 20 µM.

**Q.** For `COc1cc(CN(Cc2ccc(CNCc3ccccn3)cc2)C2CCCc3cccnc32)cc2c1OCO2` (stereo not shown) [Example 140, N-[(3-methoxy-4,5-methylenedioxyphenyl)methyl]-N′-(2-pyridinylmethyl)-N-(5,6,7,8-tetrahydro-8-quinolinyl)-1,4-benzenedimethanamine], which EC50 is on record?
**A.** Its EC50 is under 20 µM.

**Q.** How did the EC50 turn out when `c1ccc(CNCc2ccc(CN(Cc3cccnc3)C3CCCc4cccnc43)cc2)nc1` (stereo not shown) [Example 141, N-(3-pyridinylmethyl)-N′-(2-pyridinylmethyl)-N-(5,6,7,8-tetrahydro-8-quinolinyl)-1,4-benzenedimethanamine] was run?
**A.** The EC50 was under 20 µM.

**Q.** For `Cn1c(CN(Cc2ccc(CNCc3ccccn3)cc2)C2CCCc3cccnc32)nc2ccccc21` (stereo not shown) [Example 144, N-(1-methylbenzimidazol-2-ylmethyl)-N′-(2-pyridinylmethyl)-N-(5,6,7,8-tetrahydro-8-quinolinyl)-1,4-benzenedimethanamine], which EC50 is on record?
**A.** Its EC50 is under 20 µM.
